How the values were obtained:
spermatogenic cells = assay: Testicular histology, ultrastructure and TUNEL labeling; format: in vivo; settings: endogenous htt expression increased to 100% of normal levels
Experimental: Testes were removed from anesthetized animals and immediately placed in fixative (1.5% paraformaldehyde, 1.5% glutaraldehyde, 0.1 M Na cacodylate, pH 7.3). The capsules were nicked with a scalpel and then the organs left to fix for approximately 1 hour. The testes were cut into small pieces and fixed for an additional hour. The pieces were washed with buffer, post-fixed in buffered 1% OSO4 on ice for 1 hour, washed with dH2O, and stained en bloc in 1% aqueous uranyl acetate. The samples were washed with dH2O, dehydrated through a graded concentration series of ethyl alcohols, and then embedded in JEMBED™812 (J. B. EM Services Inc., Point-Claire, Quebec).
For histological analysis, thick sections (1 μm) were stained with toluidine blue and evaluated on a Zeiss Axiophot microscope. For ultrastructural analysis, thin sections were cut on an ultramicrotome, stained with lead citrate and uranyl acetate, and then viewed and photographed on a Philips 300 electron microscope operated at 60 kV.
TUNEL™ labeling (Boehringer Mannheim) was performed using standard techniques on frozen sections of testes that were lightly immersion fixed in 3% paraformaldehyde. […]
The cellular effect of the htt expression was determined by analyzing the testicular morphology of YAC rescued htt knockout mice. […]
TUNEL™ staining was used to quantitate apoptosis in the YAC rescued transgenic mice. […]

[1] = test system: immunoprecipitated recombinant protein containing the N-terminal one-third of htt
[2] = test system: recombinant N-terminal one-third of htt with serine 421 mutated to alanine (S421A)
AKT = AKT (Homo sapiens, UniProt P31749); assay: In vitro kinase reaction, phosphorylation of htt by AKT (autoradiography); format: biochemical; settings: S421A-mutant N-terminal one-third of htt as substrate, compared with wild-type, purified recombinant active AKT
Source text: Serine 421 of huntingtin can be phosphorylated by purified recombinant active AKT in vitro (FIG. 18). Immunoprecipitated recombinant protein containing the N-terminal one-third of htt was used as a substrate for AKT. Phosphorylation was detected by autoradiography since radiolabelled ATP was a component of the in vitro kinase reaction. When serine 421 was mutated to alanine (S421A), a non-phosphorylatable amino acid, 64% of the phosphorylation signal on huntingtin was ablated. […] Other sites for AKT phosphorylation are threonines 1024 and 2068.

HBL-100 cells = assay: Anoikis assay on poly-HEMA coated plates, annexin-V-FITC/PI; format: cell-based, human
Source text: The human breast cell line HBL-100, transformed by the SV40 virus large T antigen with epithelial like morphology, was used to investigate the importance of the huntingtin serine residue at position 421 with respect to phosphorylation towards anoikis resistant, anchorage independent cell growth. HBL-100 cells were transfected with a 3949-15wt huntingtin vector construct, or a similar vector in which the normal serine at position 421 was mutated to an alanine residue. This mutation prevents phosphorylation from occurring at that site, which is presumed to be mediated by the kinase AKT/PKB. Cells were cultured in DMEM with 5% serum for 24 hours either on untreated tissue culture plastic or on poly-HEMA-coated plastic plates. Cells were harvested, counted and viability was assessed via annexin-V-FITC and propidium iodide (PI) staining.
HBL-100 cells were transiently transfected with a FLAG-tagged 3949-15wt htt, or a FLAG-tagged (S-A) unphosphorylatable mutant htt. Wild-type cells were also treated with LY294002, a specific PI-3 kinase inhibitor, at a concentration of 10 μM, to determine whether inhibition of kinase function could abrogate the induction of anoikis. Western blot analysis confirming the expression of both full length and 3949 huntingtin in the FLAG-tagged constructs (FIG. 26B). The presence of endogenous huntingtin in the parental cells is also shown. […]

HEK 293T cells = assay: MTT (WST-1) cell viability assay, tamoxifen-induced cell death; format: cell-based, human; settings: transfected HEK 293T cells, tamoxifen 4 hours, compared with LacZ control
Experimental: The survival effect of htt was measured in vitro using the MTT assay, in which a reduction in mitochondrial viability is indicative of cell death. Human embryonic kidney (HEK) 293T cells were seeded at a density of 5×10^4 cells into 96-well plates and transfected with 0.1 μg htt or LacZ DNA using a standard calcium phosphate protocol (Hackam et al. (1998) J Cell Biol. 141: 1097-105). Transfected cells in 96-well plates were treated at 48 hours post-transfection with a various concentrations of tamoxifen, a cell permeable compound that leads to caspase activation and cell death, for 4 hours. Cell viability was measured, […], by incubating the cells for 2 hours in a 1:10 dilution of WST-1 reagent (Boehringer Mannheim) and release of formazan from mitochondria was quantified by the MTT assay at 450 nm using an ELISA plate reader (Dynatech Laboratories). Mock transfected, vector only and LacZ transfected cells served as controls for transfection-related toxicity. Statistical analyses of the cell death data were performed using one-way ANOVA and Newman-Keuls post-comparison tests.

NT2 cells [3] = assay: Mutant htt (HD138)-induced cell death, apoptotic morphology scoring; format: cell-based, human; settings: NT2 cells co-transfected with HD138, tamoxifen stimulus, vs pyruvate kinase control, p=0.002
Experimental: Mutant htt protein (HD138) was co-transfected with control protein, pyruvate kinase (PK), or with htt C-terminus (C-ter) into NT2 cells (a human neuronal precursor cell line) at 40% density using lipofectamine (GibcoBRL), and cell death in response to tamoxifen stimulus was measured. Cell death was quantified in NT2 cells by co-transfection of the expression constructs with a plasmid containing the LacZ gene at a 4:1 ratio, and the cells were stained for β-galactosidase activity at 24 hours post-transfection using standard procedures. The survival effect of the htt protein was assessed by incubating transfected cells with the pro-apoptotic drug tamoxifen for 4 hrs at various concentrations. An apoptotic morphology was scored as blue-staining cells that were rounded up, blebbed and condensed, which were clearly distinguished from viable cells that were flat and had neurite-like extensions. The cell death data was analyzed for statistical significance using one-way ANOVA and Newman-Keuls post-comparison tests.

NT2 cells [4] = assay: HIP-1-induced cell death, morphology scoring; format: cell-based, human; settings: NT2 cells co-transfected with HIP-1, vs control protein PK, p<0.01
Experimental: HIP-1-induced toxicity was used to assess whether the C-terminus of htt confers protection against a toxic protein-mediated cell death, in addition to its effect on tamoxifen-induced death. NT2 cells were co-transfected with mutant HIP-1 and the C-terminus, or HIP-1 and the control pyruvate kinase cDNA, using lipofectamine (GibcoBRL). Cell death was measured by morphological changes using co-transfection of a plasmid containing the LacZ gene, as described herein. […] Thus, the protective activity of htt C-terminus may have a functional role in HIP-1-mediated cell death in vivo.

[5] = test system: truncated mutant htt with 128 CAG repeats in HEK 293T cells; assay: Mutant htt aggregate formation, immunofluorescence; format: cell-based, human; settings: vs LacZ control
Experimental: The C-terminus of htt was co-transfected with mutant htt and aggregate formation was induced with tamoxifen or HIP-1 expression as described herein. HEK 293T cells were transfected with truncated mutant htt with 128 CAG repeats and processed for immunofluorescence by growing cells on glass coverslips and transfecting at 30% confluency using a standard calcium phosphate protocol. At 48 hours post-transfection, the cells were treated with 35 μM tamoxifen (Sigma) for 1 hour to induce aggregate formation, then processed for immunofluorescence. The cells were fixed in 4% paraformaldehyde/PBS, permeabilised in 0.5% Triton X-100/PBS for 5 min, then incubated with anti-htt antibody MAB2166 (Chemicon) (1:2500 dilution) diluted in 0.4% BSA/PBS. Secondary antibodies conjugated to FITC (Jackson Laboratories) were used at 1:600-1:800 dilutions, and DAPI (4′,6′-diamindino-2-phenylindole, Sigma) was used as a nuclear counter-stain. Appropriate control experiments were performed to determine the specificity of the antibodies, including secondary antibody only and mock transfected cells. The cells were viewed with a Zeiss (Axioscope) microscope, digitally captured with a CCD camera (Princeton Instrument Inc.) and the images were colourised and overlapped using the Eclipse (Empix Imaging Inc.) software program. […]

immunoprecipitated recombinant protein containing the N-terminal one-third of htt, sequence (chain, as listed by the source): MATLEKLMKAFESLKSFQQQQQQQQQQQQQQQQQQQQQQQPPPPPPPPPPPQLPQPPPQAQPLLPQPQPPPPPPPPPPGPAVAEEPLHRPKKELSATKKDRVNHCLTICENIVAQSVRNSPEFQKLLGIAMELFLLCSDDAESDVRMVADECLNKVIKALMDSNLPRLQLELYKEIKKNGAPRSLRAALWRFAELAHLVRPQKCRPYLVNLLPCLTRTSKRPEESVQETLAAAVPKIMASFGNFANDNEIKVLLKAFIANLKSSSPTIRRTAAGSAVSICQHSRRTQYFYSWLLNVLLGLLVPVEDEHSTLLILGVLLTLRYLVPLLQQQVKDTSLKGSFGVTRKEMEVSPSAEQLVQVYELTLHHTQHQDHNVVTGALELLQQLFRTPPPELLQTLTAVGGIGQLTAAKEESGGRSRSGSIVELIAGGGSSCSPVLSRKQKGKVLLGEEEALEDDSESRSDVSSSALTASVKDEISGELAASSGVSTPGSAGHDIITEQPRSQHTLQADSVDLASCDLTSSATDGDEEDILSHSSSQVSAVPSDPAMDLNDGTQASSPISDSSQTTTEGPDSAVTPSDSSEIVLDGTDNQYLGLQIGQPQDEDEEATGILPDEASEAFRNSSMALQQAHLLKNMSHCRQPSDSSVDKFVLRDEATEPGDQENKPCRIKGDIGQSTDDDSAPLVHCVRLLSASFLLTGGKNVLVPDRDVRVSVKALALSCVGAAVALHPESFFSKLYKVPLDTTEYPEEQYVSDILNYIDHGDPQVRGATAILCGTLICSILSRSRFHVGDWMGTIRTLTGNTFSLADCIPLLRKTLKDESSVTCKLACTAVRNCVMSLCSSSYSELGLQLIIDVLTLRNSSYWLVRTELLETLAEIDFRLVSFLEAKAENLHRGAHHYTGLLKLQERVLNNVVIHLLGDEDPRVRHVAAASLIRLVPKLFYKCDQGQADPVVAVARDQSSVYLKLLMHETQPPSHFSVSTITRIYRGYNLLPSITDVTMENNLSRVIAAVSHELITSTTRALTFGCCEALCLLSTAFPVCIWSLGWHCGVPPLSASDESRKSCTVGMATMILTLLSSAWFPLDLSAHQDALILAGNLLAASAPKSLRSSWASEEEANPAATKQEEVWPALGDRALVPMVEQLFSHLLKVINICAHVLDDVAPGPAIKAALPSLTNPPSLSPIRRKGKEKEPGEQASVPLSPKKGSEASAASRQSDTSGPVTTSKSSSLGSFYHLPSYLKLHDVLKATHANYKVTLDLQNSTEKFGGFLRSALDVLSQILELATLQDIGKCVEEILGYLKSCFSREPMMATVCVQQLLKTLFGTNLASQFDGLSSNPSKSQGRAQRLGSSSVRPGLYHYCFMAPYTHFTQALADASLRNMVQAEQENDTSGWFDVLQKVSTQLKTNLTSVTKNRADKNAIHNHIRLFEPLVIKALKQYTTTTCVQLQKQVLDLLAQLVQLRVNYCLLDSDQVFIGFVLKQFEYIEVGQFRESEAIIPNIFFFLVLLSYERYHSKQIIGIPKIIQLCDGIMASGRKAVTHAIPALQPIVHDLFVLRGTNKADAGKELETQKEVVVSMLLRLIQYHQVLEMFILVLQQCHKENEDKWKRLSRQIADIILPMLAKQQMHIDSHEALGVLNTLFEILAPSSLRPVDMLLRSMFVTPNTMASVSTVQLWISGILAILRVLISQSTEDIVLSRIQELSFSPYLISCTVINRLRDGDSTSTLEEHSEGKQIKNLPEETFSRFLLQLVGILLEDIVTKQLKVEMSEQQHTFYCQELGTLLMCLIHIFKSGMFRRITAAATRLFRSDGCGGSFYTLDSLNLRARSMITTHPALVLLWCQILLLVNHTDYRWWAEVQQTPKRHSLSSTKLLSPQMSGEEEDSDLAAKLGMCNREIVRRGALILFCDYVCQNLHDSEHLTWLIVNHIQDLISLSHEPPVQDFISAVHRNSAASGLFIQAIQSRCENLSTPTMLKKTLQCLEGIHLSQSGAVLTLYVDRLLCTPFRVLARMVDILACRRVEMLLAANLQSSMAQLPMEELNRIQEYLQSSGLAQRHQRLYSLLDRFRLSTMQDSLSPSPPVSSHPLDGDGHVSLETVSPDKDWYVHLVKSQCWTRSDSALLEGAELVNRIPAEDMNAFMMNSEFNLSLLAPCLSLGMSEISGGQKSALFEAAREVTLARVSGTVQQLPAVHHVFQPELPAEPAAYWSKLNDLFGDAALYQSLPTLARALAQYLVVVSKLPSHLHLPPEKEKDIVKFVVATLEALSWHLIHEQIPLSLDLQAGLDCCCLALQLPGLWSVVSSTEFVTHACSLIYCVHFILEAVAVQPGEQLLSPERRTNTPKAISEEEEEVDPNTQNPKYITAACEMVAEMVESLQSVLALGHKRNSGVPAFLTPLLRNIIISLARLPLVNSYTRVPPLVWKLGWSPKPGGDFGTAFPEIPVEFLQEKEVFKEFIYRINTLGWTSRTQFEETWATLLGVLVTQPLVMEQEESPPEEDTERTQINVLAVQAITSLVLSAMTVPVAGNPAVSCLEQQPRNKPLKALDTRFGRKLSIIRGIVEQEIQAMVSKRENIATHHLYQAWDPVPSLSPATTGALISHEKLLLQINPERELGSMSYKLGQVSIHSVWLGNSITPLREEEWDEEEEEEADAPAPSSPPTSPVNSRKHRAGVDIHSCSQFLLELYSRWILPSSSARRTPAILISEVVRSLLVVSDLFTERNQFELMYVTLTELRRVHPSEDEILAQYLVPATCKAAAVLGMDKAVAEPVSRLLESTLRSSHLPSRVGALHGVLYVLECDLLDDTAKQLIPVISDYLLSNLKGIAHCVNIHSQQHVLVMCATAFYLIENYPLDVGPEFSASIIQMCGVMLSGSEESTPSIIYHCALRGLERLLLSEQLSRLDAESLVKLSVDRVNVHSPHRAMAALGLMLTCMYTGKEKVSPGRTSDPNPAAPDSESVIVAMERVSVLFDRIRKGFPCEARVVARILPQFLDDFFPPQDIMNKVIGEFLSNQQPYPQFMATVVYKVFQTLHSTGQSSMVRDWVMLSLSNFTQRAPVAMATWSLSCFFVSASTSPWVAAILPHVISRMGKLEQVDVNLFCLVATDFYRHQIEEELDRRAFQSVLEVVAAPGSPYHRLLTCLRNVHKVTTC
recombinant N-terminal one-third of htt with serine 421 mutated to alanine (S421A), sequence (chain, as listed by the source S421A): as the sequence (chain, as listed by the source) above, with S421A counted along it
AKT, sequence (P31749 whole entry): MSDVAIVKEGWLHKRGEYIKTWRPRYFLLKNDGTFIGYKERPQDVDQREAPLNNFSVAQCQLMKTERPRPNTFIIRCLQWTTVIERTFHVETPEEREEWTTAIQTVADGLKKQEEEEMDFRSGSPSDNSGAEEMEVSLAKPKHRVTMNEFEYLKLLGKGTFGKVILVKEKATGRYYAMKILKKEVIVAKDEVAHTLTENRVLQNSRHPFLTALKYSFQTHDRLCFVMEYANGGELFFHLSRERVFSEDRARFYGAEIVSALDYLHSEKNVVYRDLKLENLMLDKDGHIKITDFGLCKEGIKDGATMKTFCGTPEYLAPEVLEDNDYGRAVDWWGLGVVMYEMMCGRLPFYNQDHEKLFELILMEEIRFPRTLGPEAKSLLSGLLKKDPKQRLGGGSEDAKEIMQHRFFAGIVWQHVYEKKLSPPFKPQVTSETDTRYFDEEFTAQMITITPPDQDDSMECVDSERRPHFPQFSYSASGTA

## endogenous htt: murine wild-type htt expressed from the Hdh gene
Spermatogenic cells
  effect on degenerative testicular phenotype of YAC72 mice: completely rescued the degenerative testicular phenotype

## purified recombinant active AKT
[1]
  phosphorylation detected by autoradiography (in vitro kinase reaction with radiolabelled ATP): Serine 421 of huntingtin can be phosphorylated by purified recombinant active AKT in vitro
[2]
  phosphorylation signal ablated (autoradiography, in vitro kinase reaction): 64% of the phosphorylation signal on huntingtin was ablated

## S421A: htt with serine 421 replaced by alanine, unphosphorylatable
AKT
  phosphorylation signal on huntingtin ablated: 64%
HBL-100 cells; HBL-100 cells transiently transfected with FLAG-tagged constructs, LY294002 10 μM
  anoikis resistant growth in detached state (kinase inhibition study): grew poorly in a detached state
HBL-100 cells; transfected HBL-100 cells, 24 hours, poly-HEMA
  anoikis resistance, growth attached or detached: behaved similarly to untransfected cells

## htt C-terminus: C-terminal fragment of huntingtin, e.g. amino acids 585-3144 of SEQ ID NO: 1, expressed by transfection
HEK 293T cells
  tamoxifen-induced cell death (mitochondrial viability): protects HEK 293T cells from tamoxifen-induced cell death
NT2 cells [3]
  HD138-dependent cell death: reduced HD138-dependent cell death
NT2 cells [4]
  HIP-1 mediated cell death: reduced HIP-1 mediated cell death
[5]; aggregates induced by HIP-1 expression
  number of aggregates formed by truncated mutant htt (1955-128): reduces the number of aggregates
[5]; aggregates induced by tamoxifen stimulus (35 μM, 1 hour)
  number of aggregates formed by truncated mutant htt (1955-128): reduces the number of aggregates

Reference: patent US20040110676A1, “Methods for modulating cell survival” (priority 2000, published 2004)
